The values below are quoted from earlier work in patent US20240173413A1, “Ultrasound Responsive Nanobubble Compositions and Methods of Production and Use Thereof” (University of Central Florida Research Foundation, lnc., priority 2021, published 2024).

Like-named read-outs stand apart in the source and are kept apart here.

In the series the test system is patients with postmenopausal osteoporosis. The note with it: Phase III, development terminated.

On to `CC(C)(F)C[C@H](N[C@@H](c1ccc(-c2ccc(S(C)(=O)=O)cc2)cc1)C(F)(F)F)C(=O)NC1(C#N)CC1` [Odanacatib], for which the adverse effects result was “increased risk of stroke”. For the same molecule, for the setting “listed as ODN”, the adverse effects entry is “cardio-cerebrovascular adverse effects”.
